Data on two compounds can be found in patent US11591337B2, “Substituted [1,2,4]triazolo[4,3-a]pyrazines as modulators of mGlu5 receptors” (Recordati Industria Chimica e Farmaceutica S.p.A., priority 2018, dated 2023).

Molecules are shown by their SMILES.

The target in test [1] is T1, mGlu5 receptor (Homo sapiens, UniProt P41594).
T1 construct: Human mGluR5 open reading frame (ORF), comprehensive of the stop codon, were cloned into the pcDNA4/TO/myc-His™ A vector; expressed in transfected cells
T1 sequence (P41594 21-1212): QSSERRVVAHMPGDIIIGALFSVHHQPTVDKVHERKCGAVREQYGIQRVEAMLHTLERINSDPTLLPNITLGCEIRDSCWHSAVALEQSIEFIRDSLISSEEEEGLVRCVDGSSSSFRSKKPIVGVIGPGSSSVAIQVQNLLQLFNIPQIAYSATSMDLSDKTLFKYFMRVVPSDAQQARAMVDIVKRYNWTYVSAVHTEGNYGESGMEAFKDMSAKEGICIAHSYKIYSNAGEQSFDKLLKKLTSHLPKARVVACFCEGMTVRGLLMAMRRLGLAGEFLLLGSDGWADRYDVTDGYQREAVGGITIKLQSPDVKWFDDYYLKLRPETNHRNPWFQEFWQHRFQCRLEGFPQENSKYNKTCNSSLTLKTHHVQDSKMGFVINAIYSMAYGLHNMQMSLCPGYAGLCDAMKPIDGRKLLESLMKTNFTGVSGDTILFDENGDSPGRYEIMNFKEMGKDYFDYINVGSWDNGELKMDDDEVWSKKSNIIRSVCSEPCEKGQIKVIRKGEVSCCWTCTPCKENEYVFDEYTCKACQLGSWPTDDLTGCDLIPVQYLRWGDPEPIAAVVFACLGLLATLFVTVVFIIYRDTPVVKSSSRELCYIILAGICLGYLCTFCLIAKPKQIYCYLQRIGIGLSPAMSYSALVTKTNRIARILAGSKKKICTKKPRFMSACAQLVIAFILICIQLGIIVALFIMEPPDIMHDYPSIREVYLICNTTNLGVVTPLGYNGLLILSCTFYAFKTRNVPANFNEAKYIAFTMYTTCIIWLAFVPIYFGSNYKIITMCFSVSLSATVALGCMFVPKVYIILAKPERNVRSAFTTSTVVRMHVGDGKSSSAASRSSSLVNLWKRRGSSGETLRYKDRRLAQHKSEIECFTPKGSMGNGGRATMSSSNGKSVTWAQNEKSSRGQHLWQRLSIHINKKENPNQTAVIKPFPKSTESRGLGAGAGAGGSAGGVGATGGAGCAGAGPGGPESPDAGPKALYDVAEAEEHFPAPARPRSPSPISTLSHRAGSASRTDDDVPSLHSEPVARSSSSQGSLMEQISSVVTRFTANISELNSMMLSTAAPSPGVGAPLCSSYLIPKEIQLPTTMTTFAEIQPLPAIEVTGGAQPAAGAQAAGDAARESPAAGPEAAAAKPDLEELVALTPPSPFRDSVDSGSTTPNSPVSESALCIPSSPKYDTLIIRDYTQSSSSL
Description: Radioligand binding assay ([3H]MPEP) at cloned mGluR5. The conditions noted are these: CHO T-REx h-mGluR5 cells, 4 nM [3H]MPEP, 60 min at 25° C.; read-out: affinity (Ki) for mGlu5 receptor. The source says: Cell lines stably transfected were generated using inducible expression vectors encoding human mGlu5 receptor using the Tetracycline-Regulated Expression system (T-REx™ system, Invitrogen, Life Technologies). Human mGluR5 open reading frame (ORF), comprehensive of the stop codon, were cloned into the pcDNA4/TO/myc-His™ A vector, carrying the TetO2. The insertion site was HindIII-PstI for mGluR5 receptors. The obtained constructs were then transfected into the T-REx CHO™ cell line using the FuGENE protocol (Roche); the CHO T-REx™ cell line stably expresses the Tet repressor (from the pcDNA6/TR plasmid) under the selection of blasticidin, 10 μg/ml. […] The expression of h-mGluR5 receptors was de-repressed with 1 μg/ml tetracycline for 18 h before binding experimentation, while the expression of h-mGluR5 receptors was derepressed respectively with 3 ng/ml and 10 ng/ml tetracycline for 18 h before calcium fluorescence experimentation.
Affinity at transmembrane glutamate metabotropic mGluR5 receptor subtypes was evaluated according to the methods of Anderson (Anderson et al., J Pharmacol. Exp. Ther., (2002), Vol. 303(3), pp. 1044-51), with some modifications. […] Non-specific binding was determined in the presence of 10 μM MPEP. […] The filters were then washed with cold buffer and the radioactivity retained on the filters was counted by liquid scintillation spectrometry (Betaplate 1204 BS-Wallac). […]

In test [2] the target is T1, mGlu5 receptor. Description: Functional activity at mGlu5 receptor as calcium fluorescence measurements. The format is cell-based. The source says:
Cell lines stably transfected were generated using inducible expression vectors encoding human mGlu5 receptor using the Tetracycline-Regulated Expression system (T-REx™ system, Invitrogen, Life Technologies). Human mGluR5 open reading frame (ORF), comprehensive of the stop codon, were cloned into the pcDNA4/TO/myc-His™ A vector, carrying the TetO2. The insertion site was HindIII-PstI for mGluR5 receptors. The obtained constructs were then transfected into the T-REx CHO™ cell line using the FuGENE protocol (Roche); the CHO T-REx™ cell line stably expresses the Tet repressor (from the pcDNA6/TR plasmid) under the selection of blasticidin, 10 μg/ml. Stable clones were obtained selecting with zeocin 1 mg/ml and maintaining in ULTRA CHO medium (LONZA) supplemented with dialyzed FBS, zeocin, blasticidin, at 37° C., in an atmosphere of 5% CO2. The expression of h-mGluR5 receptors was de-repressed with 1 μg/ml tetracycline for 18 h before binding experimentation, while the expression of h-mGluR5 receptors was derepressed respectively with 3 ng/ml and 10 ng/ml tetracycline for 18 h before calcium fluorescence experimentation.
Cells were seeded into black-walled, clear-bottom, 96-well plates at a density of 80000 cell/well, in RPMI (without Phenol Red, without L-glutamine; Gibco LifeTechnologies, CA) supplemented with 10% dialyzed FBS. Following 18-h incubation with tetracycline, the cells were loaded with 2 mM Ca^2+- sensitive fluorescent dye Fluo-4/AM (Molecular Probes) in Hanks' balanced saline solution (HBSS, Gibco LifeTechnologies, CA) with […] Hepes (Sigma) and 2.5 mM probenecid (Sigma), for 1 h at 37° C. The cells were washed three times with HBSS to remove extracellular dye. Fluorescence signals were measured by using the fluorescence microplate reader Flexstation III (Molecular Devices) at sampling intervals of 1.5 s for 60 s.
The antagonist potency was determined using the EC80 of the quisqualate used as agonist and the potentiation of mGlu5 activation was determined using the EC20 of the agonist (quisqualate or glutamate). […]

As to `O=C(c1cccc(Cl)c1)N1CCn2c(C#Cc3cccc(Cl)c3)nnc2C1` [Example 8, (3-Chlorophenyl)-[3-[2-(3-chlorophenyl)ethynyl]-6,8-dihydro-5H-[1,2,4]triazolo[4,3-a]pyrazin-7-yl]methanone], the Ki (as a rule, the dissociation constant of the complex between target and ligand, obtained from inhibition or displacement) on mGlu5 receptor [1] worked out at 33.8 nM. Also, the EC50 – broadly, the concentration giving half of the maximal effect – on mGlu5 receptor [2] (potentiation of mGlu5 activation at EC20 of the agonist (quisqualate or glutamate), read-out: positive allosteric activity EC50) is 294 nM.
Take `CCN(C)C(=O)N1CCn2c(C#Cc3cccc(C)c3)nnc2C1` [Example 40, N-Ethyl-N-methyl-3-[2-(m-tolyl)ethynyl]-6,8-dihydro-5H-[1,2,4]triazolo[4,3-a]pyrazine-7-carboxamide]: the Ki at mGlu5 receptor [1] amounted to 32 nM. On mGlu5 receptor [2], the “type of allosteric modulation” value is recorded as “negative allosteric modulator”. Also, the IC50 (commonly the concentration that inhibits the measured activity by half) on mGlu5 receptor [2] (antagonist potency at EC80 of quisqualate, read-out: negative allosteric modulation activity IC50) was found to be 60.9 nM.
